# Data published in US8796258B2, “Cyclic azabenzimidazole derivatives useful as anti-diabetic agents” (Merck Sharp & Dohme Corp., priority 2011, dated 2014).
# Legend:
# [1] = target: T1, recombinant human AMPK complex 1 (containing α1β1γ1) (Homo sapiens, UniProt Q13131+Q9Y478); test: AMPKSAMSF in vitro AMPK activation assay; type: biochemical; conditions: recombinant human AMPK complex 1 (α1β1γ1); for Emax: 10-point titration, read-out: % Maximum AMP Activation of human AMPK Complex 1; for EC50: inflection point reflecting 50% of the maximum activation
# T1 construct: made in house; host or cells: Spodoptera frugiperda Sf21 cells, baculovirus (pBacPak9 clones, triple infection)
# T1 sequence (Q13131 whole entry): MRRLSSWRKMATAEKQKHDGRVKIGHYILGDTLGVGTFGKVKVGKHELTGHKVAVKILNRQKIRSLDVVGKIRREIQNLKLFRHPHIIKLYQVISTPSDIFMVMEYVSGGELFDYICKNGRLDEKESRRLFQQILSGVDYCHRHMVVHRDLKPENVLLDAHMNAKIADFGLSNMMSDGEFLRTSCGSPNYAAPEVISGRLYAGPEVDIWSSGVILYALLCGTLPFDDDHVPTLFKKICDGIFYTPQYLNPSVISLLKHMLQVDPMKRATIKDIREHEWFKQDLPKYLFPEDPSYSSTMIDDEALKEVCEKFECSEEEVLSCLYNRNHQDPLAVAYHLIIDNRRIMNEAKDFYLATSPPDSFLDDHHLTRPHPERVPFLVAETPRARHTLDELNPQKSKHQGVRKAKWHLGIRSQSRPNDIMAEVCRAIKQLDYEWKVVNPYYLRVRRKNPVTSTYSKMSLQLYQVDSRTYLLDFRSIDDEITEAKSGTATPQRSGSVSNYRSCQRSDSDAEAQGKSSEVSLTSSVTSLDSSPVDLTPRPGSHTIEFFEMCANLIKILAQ
# T1 sequence (Q9Y478 whole entry): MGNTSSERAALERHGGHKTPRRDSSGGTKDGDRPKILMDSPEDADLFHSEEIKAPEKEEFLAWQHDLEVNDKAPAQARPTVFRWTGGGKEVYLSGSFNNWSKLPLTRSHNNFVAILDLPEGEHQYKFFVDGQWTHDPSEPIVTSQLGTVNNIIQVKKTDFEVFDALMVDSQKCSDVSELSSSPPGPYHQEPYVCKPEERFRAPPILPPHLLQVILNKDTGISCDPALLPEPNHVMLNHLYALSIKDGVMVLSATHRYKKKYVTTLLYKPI
# T1 sequence (P54619 whole entry partner): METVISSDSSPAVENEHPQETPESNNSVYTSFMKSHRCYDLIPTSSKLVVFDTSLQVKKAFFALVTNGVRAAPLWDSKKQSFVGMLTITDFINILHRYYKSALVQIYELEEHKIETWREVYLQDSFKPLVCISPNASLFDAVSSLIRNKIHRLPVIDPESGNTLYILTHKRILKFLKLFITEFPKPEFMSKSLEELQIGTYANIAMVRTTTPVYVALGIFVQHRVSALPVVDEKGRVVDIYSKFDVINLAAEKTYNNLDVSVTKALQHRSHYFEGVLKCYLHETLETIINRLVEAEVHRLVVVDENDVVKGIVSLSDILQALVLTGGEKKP
# Procedure: The recombinant human AMPK complex 1 (containing α1β1γ1) was obtained from baculovirus expression system. Recombinant viruses were generated by cotransfection of AMPK/pBacPak9 clones with Baculogold baculovirus DNA (Pharmingen) in spodoptera frugiperda 21 cells according to the manufacturer's instructions. Each round of virus amplification was performed for 5 days in Grace's medium containing 10% serum. Virus that had been subjected to three rounds of amplification was used for all protein production procedures. To express the AMPK complex, sf21 cells were adapted to serum free medium (SF900 II, Invitrogen) by sequential dilution from serum containing stocks into SF9001I medium and maintained in shaker flasks at 90 rpm at 27° C. The recombinant AMPK enzyme complex was produced by triple infection, one recombinant virus for each of the subunits, in sf21 cells under serum free conditions. Cells were infected in log phase, 1×10^6 cells/ml, at a multiplicity of infection of […]. Cells were harvested by centrifugation at 10,000×g for 15 minutes after 72 hours of infection with viruses. The insect cell pellet from 2 liters of culture was resuspended in 50 ml lysis buffer (20 mM Tris-HCl, 50 mM NaCl, 50 mM NaF, 30 mM Na PPi, 0.25 M sucrose, 10 mM ZnCl2, 2 mM DTT, 0.4 mg/ml digitonin) and subjected to two cycles of freeze-thaw lysis in a dry-ice ethanol bath. Insoluble material was removed by centrifugation at 10,000×g and the supernatant was fractionated with use of polyethylene glycol (PEG). The protein fraction precipitating between 2.5 and 6% PEG was used for further purification using a Blue-Sepharose step (Zhou et al, J. Clin. Invest. 108, 1167-1174, 2001).
# The in vitro AMPK activation assay is performed in a volume of 30 μl in a 384-well plate. Enzyme reactions were assembled in the microtiter plate by adding 15 μl of 2× enzyme in assay buffer (20 mM HEPES, pH 7.3, 5 mM MgCl2, 3 mM DTT, 0.01% Brij 35 and CamK Kinase, to activate AMPK) to wells which contained either DMSO or compound. The reaction was initiated with the addition of 15 μl 2× substrate mixture containing 200 μM ATP, and 3.0 μM fluorescently labeled SAMS (5-FAM-HMRSAMSGLHLVKRR-COOH) in assay buffer. After 45-minute incubation at 25° C., the reaction was stopped by the addition of 70 μl stop buffer (100 mM HEPES, pH 7.3, 40 mM EDTA, 0.015% Brij 35). Phosphorylated 5-FAM SAMS product is assessed using a Caliper EZ Reader LabChip microfluidics reader. Product conversion is determined by calculating the peak heights of the substrate and product and reporting the product/(product+substrate) peak ratio. The 10-point titration data were expressed as % maximum AMP activation. The results were plotted using 4 parameter fit and the inflection point reflecting 50% of the maximum activation was reported as the EC50.
# [2] = system: ob/ob and db/db mice; conditions: cited from earlier work
# [3] = system: obese Zucker (fa/fa) rats; conditions: 7 week administration; cited from earlier work
# [4] = system: rats displaying characteristics of insulin resistance syndrome; conditions: rat, in vivo; cited from earlier work
compound,measurement,setting,value
"O[C@@H]1CO[C@H]2[C@@H]1OC[C@H]2Oc1nc2nc(-c3ccc(-c4ccc(-n5cccn5)cc4)cc3)c(Cl)cc2[nH]1 [Example 163, (3R,3aR,6R,6aR)-6-[[6-chloro-5-[4-(4-pyrazol-1-ylphenyl)phenyl]-1H-imidazo[4,5-b]pyridin-2-yl]oxy]-2,3,3a,5,6,6a-hexahydrofuro[3,2-b]furan-3-ol]",Emax,[1],362%
same,EC50,[1],0.3 nM
CC(C)(F)Cn1cc2c(n1)CN(c1ccc(-c3nc4nc(O[C@@H]5CO[C@H]6[C@@H]5OC[C@H]6O)[nH]c4cc3Cl)cc1)C2 [Example 172],Emax,[1],249%
same,EC50,[1],2 nM
"OC[C@H]1OC[C@H](Oc2nc3nc(-c4ccc(-c5ccccc5)cc4)c(Cl)cc3[nH]2)C[C@@H]1O [Example 140, (2R3S,5R)-5-[[6-chloro-5-(4-phenylphenyl)-1H-imidazo[4,5-b]pyridin-2-yl]oxy]-2-(hydroxymethyl)tetrahydropyran-3-ol]",Emax,[1],668%
same,EC50,[1],38 nM
"O[C@@H]1CO[C@H]2[C@@H]1OC[C@H]2Oc1nc2nc(-c3ccc(-c4ccccc4)cc3)c(Cl)cc2[nH]1 [Example 159, 1,4:3,6-dianhydro-2-O-[5-(biphenyl-4-yl)-6-chloro-1H-imidazo[4,5-b]pyridin-2-yl]-D-mannitol]",Emax,[1],373%
same,EC50,[1],4 nM
NC(=O)c1ncn([C@@H]2O[C@H](CO)[C@@H](O)[C@H]2O)c1N [AICAR],glucose homeostasis,[2]; insulin-resistant diabetic (ob/ob) mice,improvement in glucose homeostasis
same,blood glucose reduction,"[2]; ob/ob and db/db mice, following 8 weeks of administration",35%
same,HDL cholesterol,[3],increase in HDL cholesterol
same,glucose metabolism as assessed by an oral glucose tolerance test,[3],normalization of glucose metabolism
same,plasma triglycerides and free fatty acids,[3],reduction in plasma triglycerides and free fatty acids
same,blood pressure,[4],reduction of blood pressure
O=C(O)[C@H]1CC[C@H](Oc2nc3nc(-c4ccc(N5CCCC5)cc4)c(Cl)cc3[nH]2)CC1 [Example 30],EC50,[1],24 nM
"CC(C)(O)Cc1cnn(-c2ccc(-c3ccc(-c4nc5nc(O[C@@H]6CO[C@H]7[C@@H]6OC[C@H]7O)[nH]c5cc4Cl)cc3)nc2)c1 [Example 202, (3R,3aR,6R,6aR)-6-[[6-chloro-5-[4-[5-[4-(2-hydroxy-2-methyl-propyl)pyrazol-1-yl]-2-pyridyl]phenyl]-1H-imidazo[4,5-b]pyridin-2-yl]oxy]-2,3,3a,5,6,6a-hexahydrofuro[3,2-b]furan-3-ol]",Emax,[1],372%
same,EC50,[1],1 nM
"O[C@@H]1CO[C@H]2[C@@H]1OC[C@H]2Oc1nc2nc(-c3ccc(-c4ccc(-n5cccn5)nc4)cc3)c(Cl)cc2[nH]1 [Example 179, (3R,3aR,6R,6aR)-6-[[6-chloro-5-[4-(6-pyrazol-1-yl-3-pyridyl)phenyl]-1H-imidazo[4,5-b]pyridin-2-yl]oxy]-2,3,3a,5,6,6a-hexahydrofuro[3,2-b]furan-3-ol]",Emax,[1],292%
same,EC50,[1],0.9 nM
O=S(=O)(NC1CC1)n1cc2c(n1)CN(c1ccc(-c3nc4nc(O[C@@H]5CO[C@H]6[C@@H]5OC[C@H]6O)[nH]c4cc3Cl)cc1)C2 [Example 178],Emax,[1],223%
same,EC50,[1],1 nM
"CC(C)(O)Cn1cc2c(n1)CN(c1ccc(-c3nc4nc(O[C@@H]5CO[C@H]6[C@@H]5OC[C@H]6O)[nH]c4cc3Cl)cc1)C2 [Example 171, (3R,3aR,6R,6aR)-6-[[6-chloro-5-[4-[2-(2-hydroxy-2-methyl-propyl)-4,6-dihydropyrrolo[3,4-c]pyrazol-5-yl]phenyl]-1H-imidazo[4,5-b]pyridin-2-yl]oxy]-2,3,3a,5,6,6a-hexahydrofuro[3,2-b]furan-3-ol]",Emax,[1],252%
same,EC50,[1],1 nM
O[C@@H]1CO[C@H]2[C@@H]1OC[C@H]2Oc1nc2nc(-c3ccc(-n4cc5c(n4)CNC5)cc3)c(Cl)cc2[nH]1 [Example 177],Emax,[1],368%
same,EC50,[1],18 nM
"CC(C)(O)[C@H]1C[C@@H](Oc2nc3nc(-c4ccc(-c5ccc(S(C)(=O)=O)cc5)cc4)c(Cl)cc3[nH]2)C1 [Example 130, 2-[cis-3-({6-chloro-5-[4′-(methylsulfonyl)biphenyl-4-yl]-1H-imidazo[4,5-b]pyridin-2-yl}oxy)cyclobutyl]propan-2-ol]",Emax,[1],440%
same,EC50,[1],47 nM
"O[C@@H]1CO[C@H]2[C@@H]1OC[C@H]2Oc1nc2nc(-c3ccc(C#CC4CCNCC4)cc3)c(Cl)cc2[nH]1 [Example 214, (3R,3aR,6R,6aR)-6-((6-chloro-5-(4-(piperidin-4-ylethynyl)phenyl)-1H-imidazo[4,5-b]pyridin-2-yl)oxy)hexahydrofuro[3,2-b]furan-3-ol]",Emax,[1],386%
same,EC50,[1],6 nM
"O[C@@H]1CO[C@@H]2C(Oc3nc4nc(-c5ccc(-c6ccc(-c7nnn[nH]7)cc6)cc5)c(Cl)cc4[nH]3)CO[C@H]12 (stereo partly drawn) [Example 207, (3R,3aR,6R,6R)-6-[[6-chloro-5-[4-[4-(1H-tetrazol-5-yl)phenyl]phenyl]-1H-imidazo[4,5-b]pyridin-2-yl]oxy]-2,3,3a,5,6,6a-hexahydrofuro[3,2-b]furan-3-ol]",Emax,[1],289%
same,EC50,[1],0.5 nM
O=C(O)[C@H]1CC[C@H](Oc2nc3nc(-c4ccc(-c5ccccc5)cc4)c(Cl)cc3[nH]2)CC1 [Example 29],Emax,[1],798%
same,EC50,[1],7 nM
OCC1(CO)CC(Oc2nc3nc(-c4ccc(-c5ccccc5)cc4)c(Cl)cc3[nH]2)C1 [Example 111],Emax,[1],813%
same,EC50,[1],28 nM
Cc1ccc(Oc2nc3nc(-c4ccc(N5CCCC5)cc4)c(Cl)cc3[nH]2)cc1C(=O)O [Example 3],Emax,[1],681%
same,EC50,[1],1 nM
"O[C@@H]1CO[C@H]2[C@@H]1OC[C@H]2Oc1nc2nc(-c3ccc(-c4ccc(-n5cncn5)cc4)cc3)c(Cl)cc2[nH]1 [Example 180, (3R,3a,6R,6aR)-6-[[6-chloro-5-[4-[4-(1,2,4-triazol-1-yl)phenyl]phenyl]-1H-imidazo[4,5-b]pyridin-2-yl]oxy]-2,3,3a,5,6,6a-hexahdrofuro[3,2-b]furan-3-ol]",Emax,[1],350%
same,EC50,[1],0.3 nM
CC(C)(O)Cc1cnn(-c2ccc(-c3ccc(-c4nc5nc(O[C@@H]6CO[C@H]7[C@@H]6OC[C@H]7O)[nH]c5cc4Cl)cc3)cc2)c1 [Example 190],Emax,[1],374%
same,EC50,[1],1 nM
O=C(O)C1CCC(Oc2nc3nc(-c4ccc(N5CCCC5)cc4)c(Cl)cc3[nH]2)CC1 (centres unmarked) [Example 30],Emax,[1],852%
"CS(=O)(=O)c1ccc(-c2ccc(-c3nc4nc(O[C@H]5CC[C@H](C(=O)O)CC5)[nH]c4cc3Cl)cc2)cc1 [Example 79, Trans-4-({6-chloro-5-[4′-(methylsulfonyl)biphenyl-4-yl]-1H-imidazo[4,5-b]pyridin-2-yl}oxy)cyclohexanecarboxylic acid]",Emax,[1],661%
same,EC50,[1],5 nM
